“And” between values parts separate entries of the source, which are not always exact repeats. Equal entries are not always repeated. Where two headings read alike, the source gives them in different places.
Tests used:
[1] = Metabolic stability in pooled human liver microsomes; format: in vitro ADME; conditions: for half-life at 1 μM: human, pooled human liver microsomes, human liver microsomes 0.5 mg/mL, test compound 1 μM, 37° C.
[2] = molecular target: T1, human recombinant AT2 receptor (Homo sapiens, UniProt P50052); assay: Binding to AT2 receptor, radiometric scintillation assay (Eurofins); conditions: for IC50: read-out: AT2 GraFit IC50; for Ki: seven-point dose-response curve, read-out: AT2R Ki
T1 construct: Eurofins protocol ITEM26
T1 sequence (P50052 1-363): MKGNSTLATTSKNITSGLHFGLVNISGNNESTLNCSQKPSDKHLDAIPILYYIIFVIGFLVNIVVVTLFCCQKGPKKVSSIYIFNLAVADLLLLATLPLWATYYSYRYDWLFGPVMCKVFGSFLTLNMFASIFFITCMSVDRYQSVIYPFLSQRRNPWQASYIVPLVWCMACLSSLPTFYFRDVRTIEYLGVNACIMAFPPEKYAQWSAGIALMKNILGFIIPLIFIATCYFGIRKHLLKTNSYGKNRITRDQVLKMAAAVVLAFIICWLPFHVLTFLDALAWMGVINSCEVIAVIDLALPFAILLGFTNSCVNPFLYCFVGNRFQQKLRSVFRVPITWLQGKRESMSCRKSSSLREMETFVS

[3] = molecular target: T2, human recombinant AT1 receptor (Homo sapiens, UniProt P30556); assay: Binding to AT1 receptor, radiometric scintillation assay (Eurofins); conditions: single run; 1 and 10 μM; ligand 125I(sar1,Ile8)-AT-II
T2 construct: Eurofins protocol ITEM24
T2 sequence (P30556 1-359): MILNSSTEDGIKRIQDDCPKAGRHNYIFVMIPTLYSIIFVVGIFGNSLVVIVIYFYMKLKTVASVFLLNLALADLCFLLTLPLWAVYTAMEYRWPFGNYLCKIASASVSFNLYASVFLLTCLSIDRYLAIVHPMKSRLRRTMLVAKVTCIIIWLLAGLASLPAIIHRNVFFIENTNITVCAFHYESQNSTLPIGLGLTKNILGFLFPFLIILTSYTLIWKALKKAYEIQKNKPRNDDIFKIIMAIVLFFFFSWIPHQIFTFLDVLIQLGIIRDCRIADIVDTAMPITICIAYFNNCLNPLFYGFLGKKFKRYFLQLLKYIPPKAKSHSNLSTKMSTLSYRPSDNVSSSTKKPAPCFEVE

CYP1A = molecular target: T3, CYP1A (Homo sapiens, UniProt P05177); assay: CYP inhibition, human liver microsomes; format: in vitro ADME; conditions: probe phenacetin, substrate phenacetin, read-out: CYP1A Inh %
T3 construct: tissue Eurofins protocol ITEMG232; host or cells: human liver microsomes
T3 sequence (P05177 2-516 limits assumed): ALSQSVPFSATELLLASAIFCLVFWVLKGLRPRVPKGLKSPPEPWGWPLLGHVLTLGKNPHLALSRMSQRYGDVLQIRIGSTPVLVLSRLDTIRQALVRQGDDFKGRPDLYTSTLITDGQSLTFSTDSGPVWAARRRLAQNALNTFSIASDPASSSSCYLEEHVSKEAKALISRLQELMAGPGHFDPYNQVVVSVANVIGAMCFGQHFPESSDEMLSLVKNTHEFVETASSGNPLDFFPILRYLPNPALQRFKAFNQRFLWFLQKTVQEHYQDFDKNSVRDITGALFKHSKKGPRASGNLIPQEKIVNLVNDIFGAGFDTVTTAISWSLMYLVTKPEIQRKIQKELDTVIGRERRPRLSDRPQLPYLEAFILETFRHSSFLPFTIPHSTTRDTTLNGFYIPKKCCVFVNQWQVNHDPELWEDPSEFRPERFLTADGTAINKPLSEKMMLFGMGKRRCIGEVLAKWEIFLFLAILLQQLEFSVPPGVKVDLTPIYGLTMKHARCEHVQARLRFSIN

CYP2B6 = molecular target: T4, CYP2B6 (Homo sapiens, UniProt P20813); assay: CYP inhibition, human liver microsomes; format: in vitro ADME; conditions: probe bupropion, substrate bupropion, read-out: CYP2B6 Inh %
T4 construct: tissue Eurofins protocol ITEMG232; host or cells: human liver microsomes
T4 sequence (P20813 1-491): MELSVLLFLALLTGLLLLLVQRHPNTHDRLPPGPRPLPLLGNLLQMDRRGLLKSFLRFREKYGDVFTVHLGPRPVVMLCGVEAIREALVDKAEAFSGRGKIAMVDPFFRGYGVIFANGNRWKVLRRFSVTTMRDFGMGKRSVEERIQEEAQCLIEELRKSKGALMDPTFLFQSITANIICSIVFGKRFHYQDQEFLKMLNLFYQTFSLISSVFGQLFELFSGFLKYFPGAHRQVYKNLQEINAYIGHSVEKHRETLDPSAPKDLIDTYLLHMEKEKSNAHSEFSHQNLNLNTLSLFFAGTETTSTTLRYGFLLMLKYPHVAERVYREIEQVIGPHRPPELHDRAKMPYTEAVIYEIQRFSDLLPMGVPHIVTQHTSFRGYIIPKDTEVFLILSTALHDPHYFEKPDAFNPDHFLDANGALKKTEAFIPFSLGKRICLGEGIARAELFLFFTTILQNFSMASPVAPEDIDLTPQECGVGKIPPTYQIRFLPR

CYP2C19 = molecular target: T5, CYP2C19 (Homo sapiens, UniProt P33261); assay: CYP inhibition, human liver microsomes; format: in vitro ADME; conditions: probe omeprazole, substrate omeprazole, read-out: CYP2C19 Inh %
T5 construct: tissue Eurofins protocol ITEMG232; host or cells: human liver microsomes
T5 sequence (P33261 whole entry): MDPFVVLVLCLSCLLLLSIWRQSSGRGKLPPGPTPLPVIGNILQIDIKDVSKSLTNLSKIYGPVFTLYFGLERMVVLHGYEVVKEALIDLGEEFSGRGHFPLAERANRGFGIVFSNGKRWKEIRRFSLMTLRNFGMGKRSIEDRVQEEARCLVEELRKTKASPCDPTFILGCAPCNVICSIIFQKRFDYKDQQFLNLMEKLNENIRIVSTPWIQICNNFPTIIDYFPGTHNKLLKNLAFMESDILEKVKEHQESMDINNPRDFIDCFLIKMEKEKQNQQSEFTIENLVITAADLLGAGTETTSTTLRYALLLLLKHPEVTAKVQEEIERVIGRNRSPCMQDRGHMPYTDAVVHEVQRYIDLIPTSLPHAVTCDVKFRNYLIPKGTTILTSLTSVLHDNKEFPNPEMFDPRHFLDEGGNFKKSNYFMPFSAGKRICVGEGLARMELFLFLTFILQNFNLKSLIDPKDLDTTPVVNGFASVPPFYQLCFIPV

CYP2C8 = molecular target: T6, CYP2C8 (Homo sapiens, UniProt P10632); assay: CYP inhibition, human liver microsomes; format: in vitro ADME; conditions: probe paclitaxel and amodiaquine, substrates paclitaxel and amodiaquine, read-out: CYP2C8 Inh %
T6 construct: tissue Eurofins protocol ITEMG232; host or cells: human liver microsomes
T6 sequence (P10632 1-490): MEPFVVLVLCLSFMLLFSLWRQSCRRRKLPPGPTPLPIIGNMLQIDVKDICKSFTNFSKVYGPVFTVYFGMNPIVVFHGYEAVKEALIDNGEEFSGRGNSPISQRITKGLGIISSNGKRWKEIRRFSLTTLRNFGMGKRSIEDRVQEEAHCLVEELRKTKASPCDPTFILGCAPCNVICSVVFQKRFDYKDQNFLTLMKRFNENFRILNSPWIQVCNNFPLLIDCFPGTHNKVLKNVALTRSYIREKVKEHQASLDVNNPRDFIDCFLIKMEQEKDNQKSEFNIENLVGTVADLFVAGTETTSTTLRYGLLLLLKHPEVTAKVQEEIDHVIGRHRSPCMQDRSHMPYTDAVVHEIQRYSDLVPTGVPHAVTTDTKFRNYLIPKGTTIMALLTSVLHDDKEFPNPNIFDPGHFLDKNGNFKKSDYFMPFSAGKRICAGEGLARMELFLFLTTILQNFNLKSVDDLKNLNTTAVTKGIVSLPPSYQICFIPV

CYP2C9 = molecular target: T7, CYP2C9 (Homo sapiens, UniProt P11712); assay: CYP inhibition, human liver microsomes; format: in vitro ADME; conditions: for inhibition at 10 µM: probe diclofenac, substrate diclofenac, human liver microsomes, read-out: CYP2C9 Inh %
T7 construct: tissue Eurofins protocol ITEMG232; host or cells: human liver microsomes
T7 sequence (P11712 whole entry): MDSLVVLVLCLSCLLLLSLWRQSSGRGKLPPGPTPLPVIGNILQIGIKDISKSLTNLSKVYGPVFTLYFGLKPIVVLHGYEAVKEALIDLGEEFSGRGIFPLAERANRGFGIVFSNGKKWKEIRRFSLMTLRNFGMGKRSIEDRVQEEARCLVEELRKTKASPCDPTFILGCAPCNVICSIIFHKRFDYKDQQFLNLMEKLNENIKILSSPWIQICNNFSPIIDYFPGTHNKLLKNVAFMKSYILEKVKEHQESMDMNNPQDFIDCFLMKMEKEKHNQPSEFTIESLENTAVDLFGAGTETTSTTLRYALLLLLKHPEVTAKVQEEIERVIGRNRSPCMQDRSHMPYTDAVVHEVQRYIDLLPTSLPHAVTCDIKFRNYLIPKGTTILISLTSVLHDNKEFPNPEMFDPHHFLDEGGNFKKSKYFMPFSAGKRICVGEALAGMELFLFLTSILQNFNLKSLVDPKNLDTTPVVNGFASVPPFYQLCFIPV

CYP2D6 = molecular target: T8, CYP2D6 (Homo sapiens, UniProt P10635); assay: CYP inhibition, human liver microsomes; format: in vitro ADME; conditions: probe dextromethorphan, substrate dextromethorphan, read-out: CYP2D6 Inh %
T8 construct: tissue Eurofins protocol ITEMG232; host or cells: human liver microsomes
T8 sequence (P10635 whole entry): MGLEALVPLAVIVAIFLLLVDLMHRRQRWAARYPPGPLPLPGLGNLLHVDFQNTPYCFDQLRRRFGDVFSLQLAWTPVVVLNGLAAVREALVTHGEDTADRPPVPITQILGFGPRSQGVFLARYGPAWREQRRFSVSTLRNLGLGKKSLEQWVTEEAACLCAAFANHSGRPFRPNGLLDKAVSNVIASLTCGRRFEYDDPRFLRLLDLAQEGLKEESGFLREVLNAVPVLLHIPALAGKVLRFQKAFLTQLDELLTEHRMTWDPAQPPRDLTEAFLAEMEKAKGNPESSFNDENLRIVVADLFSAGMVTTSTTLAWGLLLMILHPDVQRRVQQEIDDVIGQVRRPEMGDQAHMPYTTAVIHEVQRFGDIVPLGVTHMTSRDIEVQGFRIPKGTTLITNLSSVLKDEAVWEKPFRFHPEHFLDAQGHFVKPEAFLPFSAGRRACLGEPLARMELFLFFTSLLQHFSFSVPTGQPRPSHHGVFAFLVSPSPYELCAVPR

CYP3A4 = molecular target: T9, CYP3A4 (Homo sapiens, UniProt P08684); assay: CYP inhibition, human liver microsomes; format: in vitro ADME; conditions: for inhibition at 10 µM: probe midazolam, substrate midazolam, human liver microsomes, read-out: CYP3A4 midazolam Inh %
T9 construct: tissue Eurofins protocol ITEMG232; host or cells: human liver microsomes
T9 sequence (P08684 whole entry): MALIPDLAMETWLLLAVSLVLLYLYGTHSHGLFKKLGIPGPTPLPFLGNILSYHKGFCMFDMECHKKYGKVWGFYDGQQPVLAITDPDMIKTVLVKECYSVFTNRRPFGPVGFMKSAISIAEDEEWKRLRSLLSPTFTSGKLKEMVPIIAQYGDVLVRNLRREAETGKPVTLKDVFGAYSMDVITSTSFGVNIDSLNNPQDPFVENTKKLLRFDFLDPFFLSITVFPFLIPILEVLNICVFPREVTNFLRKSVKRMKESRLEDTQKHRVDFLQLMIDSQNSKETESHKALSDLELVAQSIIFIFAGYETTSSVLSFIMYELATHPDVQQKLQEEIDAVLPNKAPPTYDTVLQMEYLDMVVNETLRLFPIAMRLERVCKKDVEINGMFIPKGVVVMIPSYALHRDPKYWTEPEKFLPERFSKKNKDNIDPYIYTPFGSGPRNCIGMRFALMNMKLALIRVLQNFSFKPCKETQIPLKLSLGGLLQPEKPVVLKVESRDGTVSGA

CYP3A4&5 = assay: CYP inhibition, human liver microsomes; format: in vitro ADME; conditions: probe testosterone, substrate testosterone, read-out: CYP3A4&5 testosterone Inh %
[4] = with 1 mM NADPH, read-out: T1/2, + NaDPH
[5] = without NADPH, read-out: T1/2, no NaDPH
[6] = single run, 1, 10, 100 and 1000 nM, ligand 125I CGP 42112A
[7] = found during development, background statement

Row | SMILES | half-life at 1 μM [1, 4] [h] | half-life at 1 μM [1, 5] [h] | IC50 ([2]; mean average of the runs) [nM] | Ki ([2]; ligand 125I CGP 42112A) [nM] | IC50 [2, 6] | IC50 [3] [nM] | inhibition at 10 µM (CYP1A) [%] | inhibition at 10 µM (CYP2B6) [%] | inhibition at 10 µM (CYP2C19) [%] | inhibition at 10 µM (CYP2C8) [%] | inhibition at 10 µM (CYP2C9) [%] | inhibition at 10 µM (CYP2D6) [%] | inhibition at 10 µM (CYP3A4) [%] | inhibition at 10 µM (CYP3A4&5) [%] | metabolic hydrolysis (in words) [1, 7] | inhibition of CYP 2C9 (in words) (CYP2C9; [7]) | inhibition of CYP 3A4 (in words) (CYP3A4; [7])
1 | CC(C)Cc1cc(-c2ccc(Cn3ccnc3C(C)(C)C)cc2)c(S(=O)(=O)NC(=O)NCc2ccco2)s1 [Example 1, Furan-2-ylmethyl-3-[[5-isobutyl-3-[4-[(2-tert-butyl-imidazol-1-yl)methyl]phenyl]-2-thienyl]sulfonyl]urea] | > 1 | > 1 | 4.2 | 2.8 | 2.6 nM and 5.7 nM | 3000 | -13.2 | 96.5 | 49.1 | 77.8 | 58.4 | 13.8 | 11.6 | 11.8 |  |  | 
2 | CC(C)Cc1cc(-c2ccc(Cn3ccnc3C(C)(C)C)cc2)c(S(=O)(=O)NC(=O)NCc2cccs2)s1 [Example 2] | 0.533 | > 1 | 2.5 | 1.25 | 2.5 nM | 2000 | -1.8 | 9.6 | 56.8 | 81.8 | 64.6 | 33.6 | 40.9 | 18 |  |  | 
3 | COCCNC(=O)NS(=O)(=O)c1sc(CC(C)C)cc1-c1ccc(Cn2ccnc2C(C)(C)C)cc1 [Example 3] | > 1 | > 1 |  |  |  |  |  |  |  |  |  |  |  |  |  |  | 
4 | CC(C)Cc1cc(-c2ccc(Cn3ccnc3C(C)(C)C)cc2)c(S(=O)(=O)NC(=O)NCc2ccccn2)s1 [Example 4] | > 1 | > 1 | 2.9 | 1.9 | 3.7 nM and 2.1 nM | 3000 | -0.5 | 13.8 | 44.4 | 79.3 | 43.5 | 24.3 | 33.7 | 16.7 |  |  | 
5 | CC(C)Cc1cc(-c2ccc(Cn3ccnc3C(C)(C)C)c(F)c2)c(S(=O)(=O)NC(=O)NCc2ccccn2)s1 [Example 5, 1-[[3-[4-[(2-Tert-butylimidazol-1-yl)methyl]-3-fluoro-phenyl]-5-isobutyl-2-thienyl]sulfonyl]-3-(2-pyridylmethyl)urea] | > 1 | > 1 |  |  | 0.44 nM | 1800 | 34.1 | 24.9 | 52.1 | 78.3 | 62.1 | 23.2 | 43 | 18.9 |  |  | 
6 | CCNC(=O)NS(=O)(=O)c1sc(CC(C)C)cc1-c1ccc(Cn2ccnc2C(C)(C)C)c(F)c1 [Example 6, 1-[[3-[4-[(2-Tert-butylimidazol-1-yl)methyl]-3-fluoro-phenyl]-5-isobutyl-2-thienyl]sulfonyl]-3-ethyl-urea] | > 1 | > 1 |  |  |  |  | 15.8 | 27 | 35.1 | 77.6 | 39.7 | 18.8 | 23.8 | 10.8 |  |  | 
7 | CC(C)Cc1cc(-c2ccc(Cn3ccnc3C(C)(C)C)c(F)c2)c(S(=O)(=O)NC(=O)NCc2cccs2)s1 [Example 7, 1-[[3-[4-[(2-Tert-butylimidazol-1-yl)methyl]-3-fluoro-phenyl]-5-isobutyl-2-thienyl]sulfonyl]-3-(2-thienylmethyl)urea] | 0.383 | > 1 |  |  | 5 nM | 3100 | 20.7 | 50.5 | 49.1 | 79.9 | 76.3 | 13.8 | 52.3 | 16.7 |  |  | 
8 | CCCCOC(=O)NS(=O)(=O)c1sc(CC(C)C)cc1-c1ccc(Cn2ccnc2)cc1 [Example C21, N-butyloxycarbonyl-3-(4-imidazol-1-ylmethylphenyl)-5-isobutylthiophene-2-sulfon-amide, reference compound] |  |  |  |  |  |  |  |  |  |  |  |  |  |  | rapidly hydrolysed to an inactive sulfonamide metabolite | potent inhibitor | potent inhibitor
